Results reported in PubChem BioAssay (NCI).
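At the GI50, growth is halved. The concentration for full growth arrest is given as TGI.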

Experiments:
Assay in all cases: NCI-60 cell line screen, 384-well format
LOX IMVI melanoma = system: LOX IMVI melanoma
786-0 renal = system: 786-0 renal
HCC-2998 colon = system: HCC-2998 colon
T-47D breast = system: T-47D breast
BT-549 breast = system: BT-549 breast
OVCAR-3 ovarian = system: OVCAR-3 ovarian
HCT-116 colon = system: HCT-116 colon
SF-539 CNS = system: SF-539 CNS
RPMI-8226 leukemia = system: RPMI-8226 leukemia
MDA-MB-231 breast = system: MDA-MB-231 breast
PC-3 prostate = system: PC-3 prostate
SNB-75 CNS = system: SNB-75 CNS
OVCAR-4 ovarian = system: OVCAR-4 ovarian
IGROV1 ovarian = system: IGROV1 ovarian
SF-268 CNS = system: SF-268 CNS
SK-MEL-28 melanoma = system: SK-MEL-28 melanoma
SK-MEL-5 melanoma = system: SK-MEL-5 melanoma
NCI-H226 lung = system: NCI-H226 lung
TK-10 renal = system: TK-10 renal
K-562 leukemia = system: K-562 leukemia
HCT-15 colon = system: HCT-15 colon
MDA-MB-468 breast = system: MDA-MB-468 breast
UO-31 renal = system: UO-31 renal
MCF7 breast = system: MCF7 breast
EKVX NSCLC = system: EKVX NSCLC
KM12 colon = system: KM12 colon
M14 melanoma = system: M14 melanoma
UACC-62 melanoma = system: UACC-62 melanoma
SR leukemia = system: SR leukemia
SF-295 CNS = system: SF-295 CNS
NCI-H522 lung = system: NCI-H522 lung
SW-620 colon = system: SW-620 colon
UACC-257 melanoma = system: UACC-257 melanoma
OVCAR-5 ovarian = system: OVCAR-5 ovarian
HT29 colon = system: HT29 colon
MALME-3M melanoma = system: MALME-3M melanoma
U251 glioblastoma = system: U251 glioblastoma
HOP-62 NSCLC = system: HOP-62 NSCLC
SNB-19 CNS = system: SNB-19 CNS
SK-MEL-2 melanoma = system: SK-MEL-2 melanoma
RXF 393 renal = system: RXF 393 renal
SN12C renal = system: SN12C renal
CCRF-CEM leukemia = system: CCRF-CEM leukemia
CAKI-1 renal = system: CAKI-1 renal
MOLT-4 leukemia = system: MOLT-4 leukemia
NCI-H23 lung = system: NCI-H23 lung
NCI/ADR-RES ovarian = system: NCI/ADR-RES ovarian
SK-OV-3 ovarian = system: SK-OV-3 ovarian
HL-60(TB) leukemia = system: HL-60(TB) leukemia
DU-145 prostate = system: DU-145 prostate
NCI-H460 NSCLC = system: NCI-H460 NSCLC
HS 578T breast = system: HS 578T breast
MDA-MB-435 melanoma = system: MDA-MB-435 melanoma
NCI-H322M lung = system: NCI-H322M lung
A549 NSCLC = system: A549 NSCLC
COLO 205 colon = system: COLO 205 colon
OVCAR-8 ovarian = system: OVCAR-8 ovarian

What does the source list for C=CCn1c(=O)c2cnc(Nc3ccc(N4CCN(C)CC4)cc3)nc2n1-c1cccc(C(C)(C)O)n1?
GI50 (LOX IMVI melanoma): 626 nM; TGI (LOX IMVI melanoma): 2710 nM; GI50 ([…]-0 renal): 183 nM; TGI (786-0 renal): 414 nM; GI50 (HCC-2998 colon): 203 nM; TGI (HCC-2998 colon): 555 nM; GI50 (T-47D breast): 5880 nM; TGI (T-47D breast): 28900 nM; GI50 (BT-549 breast): 115 nM; TGI (BT-549 breast): 299 nM; GI50 (OVCAR-3 ovarian): 130 nM; TGI (OVCAR-3 ovarian): 328 nM; GI50 (HCT-116 colon): 308 nM; TGI (HCT-116 colon): 2240 nM; GI50 (SF-539 CNS): 51 nM; TGI (SF-539 CNS): 178 nM; GI50 (RPMI-8226 leukemia): 260 nM; TGI (RPMI-8226 leukemia): 1120 nM; GI50 (MDA-MB-231 breast): 372 nM; TGI (MDA-MB-231 breast): 7330 nM; GI50 (PC-3 prostate): 724 nM; TGI (PC-3 prostate): 21000 nM; GI50 (SNB-75 CNS): 1210 nM; TGI (SNB-75 CNS): 4350 nM; GI50 (OVCAR-4 ovarian): 157 nM; TGI (OVCAR-4 ovarian): 407 nM; GI50 (IGROV1 ovarian): 173 nM; TGI (IGROV1 ovarian): 1090 nM; GI50 (SF-268 CNS): 559 nM; TGI (SF-268 CNS): 10700 nM; GI50 (SK-MEL-28 melanoma): 3440 nM; TGI (SK-MEL-28 melanoma): 17100 nM; GI50 (SK-MEL-5 melanoma): 187 nM; TGI (SK-MEL-5 melanoma): 460 nM; GI50 (NCI-H226 lung): 1410 nM; TGI (NCI-H226 lung): 9220 nM; GI50 (TK-10 renal): 171 nM; TGI (TK-10 renal): 700 nM; GI50 (K-562 leukemia): 175 nM; TGI (K-562 leukemia): 347 nM; GI50 (HCT-15 colon): 326 nM; TGI (HCT-15 colon): 1210 nM; GI50 (MDA-MB-468 breast): 220 nM; TGI (MDA-MB-468 breast): 492 nM; GI50 (UO-31 renal): 274 nM; TGI (UO-31 renal): 1250 nM; GI50 (MCF7 breast): 216 nM; TGI (MCF7 breast): 11500 nM; GI50 (EKVX NSCLC): 560 nM; TGI (EKVX NSCLC): 4800 nM; GI50 (KM12 colon): 218 nM; TGI (KM12 colon): 649 nM; GI50 (M14 melanoma): 51.4 nM; TGI (M14 melanoma): 246 nM; GI50 (UACC-62 melanoma): 354 nM; TGI (UACC-62 melanoma): 12800 nM; GI50 (SR leukemia): 58.4 nM; TGI (SR leukemia): 184 nM; GI50 (SF-295 CNS): 357 nM; TGI (SF-295 CNS): 2260 nM; GI50 (NCI-H522 lung): 135 nM; TGI (NCI-H522 lung): 286 nM; GI50 (SW-620 colon): 352 nM; TGI (SW-620 colon): 1930 nM; GI50 (UACC-257 melanoma): 10000 nM; TGI (UACC-257 melanoma): 21900 nM; GI50 (OVCAR-5 ovarian): 596 nM; TGI (OVCAR-5 ovarian): 6100 nM; GI50 (HT29 colon): 319 nM; TGI (HT29 colon): 15200 nM; GI50 (MALME-3M melanoma): 52.9 nM; TGI (MALME-3M melanoma): 342 nM; GI50 (U251 glioblastoma): 419 nM; TGI (U251 glioblastoma): 6770 nM; GI50 (HOP-62 NSCLC): 406 nM; TGI (HOP-62 NSCLC): 2130 nM; GI50 (SNB-19 CNS): 502 nM; TGI (SNB-19 CNS): 15400 nM; GI50 (SK-MEL-2 melanoma): 160 nM; TGI (SK-MEL-2 melanoma): 393 nM; GI50 (RXF 393 renal): 48.7 nM; TGI (RXF 393 renal): 196 nM; GI50 (SN12C renal): 311 nM; TGI (SN12C renal): 2270 nM; GI50 (CCRF-CEM leukemia): 69.9 nM; TGI (CCRF-CEM leukemia): 197 nM; GI50 (CAKI-1 renal): 72.3 nM; TGI (CAKI-1 renal): 11200 nM; GI50 (MOLT-4 leukemia): 29.9 nM; TGI (MOLT-4 leukemia): 103 nM; GI50 (NCI-H23 lung): 94.5 nM; TGI (NCI-H23 lung): 254 nM; GI50 (NCI/ADR-RES ovarian): 1810 nM; TGI (NCI/ADR-RES ovarian): 4950 nM; GI50 (SK-OV-3 ovarian): 76.6 nM; TGI (SK-OV-3 ovarian): 1460 nM; GI50 (HL-60(TB) leukemia): 148 nM; TGI (HL-60(TB) leukemia): 284 nM; GI50 (DU-145 prostate): 262 nM; TGI (DU-145 prostate): 1810 nM; GI50 (NCI-H460 NSCLC): 574 nM; TGI (NCI-H460 NSCLC): 3420 nM; GI50 (HS 578T breast): 154 nM; TGI (HS 578T breast): 529 nM; GI50 (MDA-MB-435 melanoma): 201 nM; TGI (MDA-MB-435 melanoma): 413 nM; GI50 (NCI-H322M lung): 233 nM; TGI (NCI-H322M lung): 935 nM; GI50 (A549 NSCLC): 1020 nM; TGI (A549 NSCLC): 12800 nM; GI50 (COLO 205 colon): 294 nM; TGI (COLO 205 colon): 829 nM; GI50 (OVCAR-8 ovarian): 219 nM; TGI (OVCAR-8 ovarian): 566 nM
